From ChEMBL document CHEMBL1201861, “Genomics of Drug Sensitity in Cancer screening data, Wellcome Trust Sanger Institute”

Tests used:
Assay in all cases: cells
Settings in all cases: Homo sapiens
[1] = test system: PSN1; format: functional, cell-based;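 note: suppression of growth of human PSN1 cells, read out by a cell viability assay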
Description: SANGER: Inhibition of human PSN1 cell growth in a cell viability assay.

[2] = test system: NCI-H1581; format: functional, cell-based;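 note: cell growth inhibition read out by a viability assay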
Description: SANGER: Inhibition of human NCI-H1581 cell growth in a cell viability assay.

[3] = test system: LB2518-MEL; format: functional, cell-based;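 note: growth inhibition of human LB2518-MEL cells, measured with a cell viability assay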
Description: SANGER: Inhibition of human LB2518-MEL cell growth in a cell viability assay.

[4] = test system: RPMI-8866; format: functional, cell-based
Description: SANGER: Inhibition of human RPMI-8866 cell growth in a cell viability assay.

[5] = test system: ACN; format: functional, cell-based;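 note: growth inhibition of the human ACN cell line, read out via cell viability testing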
Description: SANGER: Inhibition of human ACN cell growth in a cell viability assay.

[6] = test system: P30-OHK; format: functional, cell-based;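 note: growth inhibition of the P30-OHK cell line, read out with a cell viability assay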
Description: SANGER: Inhibition of human P30-OHK cell growth in a cell viability assay.

[7] = test system: A4-Fuk; format: functional, cell-based;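 note: growth inhibition of A4-Fuk cells, read out by a cell viability assay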
Description: SANGER: Inhibition of human A4-Fuk cell growth in a cell viability assay.

[8] = test system: UACC-257; format: functional, cell-based
Description: SANGER: Inhibition of human UACC-257 cell growth in a cell viability assay.

[9] = test system: MFH-ino; format: functional, cell-based;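 note: growth inhibition of human MFH-ino cells, read out by a cell viability assay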
Description: SANGER: Inhibition of human MFH-ino cell growth in a cell viability assay.

[10] = test system: SW872; format: functional, cell-based;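 note: growth inhibition of SW872 cells, read out by a viability assay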
Description: SANGER: Inhibition of human SW872 cell growth in a cell viability assay.

[11] = test system: LAN-6; format: functional, cell-based;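 note: growth inhibition of LAN-6 cells, determined with a cell viability assay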
Description: SANGER: Inhibition of human LAN-6 cell growth in a cell viability assay.

[12] = test system: SCC-15; format: functional, cell-based;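 note: growth inhibition of SCC-15 cells, read out with a cell viability assay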
Description: SANGER: Inhibition of human SCC-15 cell growth in a cell viability assay.

[13] = test system: SJSA-1; format: functional, cell-based;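 note: growth inhibition of human SJSA-1 cells, read out through a cell viability measurement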
Description: SANGER: Inhibition of human SJSA-1 cell growth in a cell viability assay.

[14] = test system: NKM-1; format: functional, cell-based;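 note: growth inhibition of NKM-1 cells, read out with a cell viability assay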
Description: SANGER: Inhibition of human NKM-1 cell growth in a cell viability assay.

[15] = test system: NMC-G1; format: functional, cell-based;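 note: growth inhibition of the NMC-G1 cell line, measured with a cell viability read-out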
Description: SANGER: Inhibition of human NMC-G1 cell growth in a cell viability assay.

[16] = test system: NCI-H209; format: functional, cell-based;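 note: growth inhibition of human NCI-H209 cells, measured by a cell viability assay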
Description: SANGER: Inhibition of human NCI-H209 cell growth in a cell viability assay.

[17] = test system: LS-411N; format: functional, cell-based
[18] = test system: TE-1; format: functional, cell-based;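 note: growth inhibition of the human TE-1 cell line, read out with a cell viability assay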
Description: SANGER: Inhibition of human TE-1 cell growth in a cell viability assay.

[19] = test system: SK-MEL-2; format: functional, cell-based;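 note: growth inhibition of human SK-MEL-2 cells measured with a cell viability assay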
Description: SANGER: Inhibition of human SK-MEL-2 cell growth in a cell viability assay.

[20] = test system: LS-1034; format: functional, cell-based
Description: SANGER: Inhibition of human LS-1034 cell growth in a cell viability assay.

[21] = test system: Lu-65; format: functional, cell-based;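 note: growth inhibition of Lu-65 cancer cells, read out by a cell viability assay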
Description: SANGER: Inhibition of human LU-65 cell growth in a cell viability assay.

[22] = test system: SF-268; format: functional, cell-based;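 note: growth inhibition of SF-268 cells determined with a cell viability assay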
Description: SANGER: Inhibition of human SF268 cell growth in a cell viability assay.

[23] = test system: GCIY; format: functional, cell-based;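 note: growth inhibition of the human GCIY cell line, read out by a cell viability assay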
Description: SANGER: Inhibition of human GCIY cell growth in a cell viability assay.

[24] = test system: HOP-62; format: functional, cell-based;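 note: cell growth inhibition determined with a viability assay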
Description: SANGER: Inhibition of human HOP-62 cell growth in a cell viability assay.

[25] = test system: NB6; format: functional, cell-based;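 note: growth inhibition of NB6 cells, read out by a cell viability assay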
Description: SANGER: Inhibition of human NB6 cell growth in a cell viability assay.

[26] = test system: GI-ME-N; format: functional, cell-based;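 note: growth inhibition of human GI-ME-N cells, read out with a cell viability assay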
Description: SANGER: Inhibition of human GI-ME-N cell growth in a cell viability assay.

[27] = test system: RS4-11; format: functional, cell-based;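 note: growth inhibition of RS4-11 cells, read out by a cell viability assay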
Description: SANGER: Inhibition of human RS4-11 cell growth in a cell viability assay.

[28] = test system: BHY; format: functional, cell-based;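 note: cell growth inhibition read out by a viability assay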
Description: SANGER: Inhibition of human BHY cell growth in a cell viability assay.

[29] = test system: NCI-H747; format: functional, cell-based;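 note: growth inhibition of human NCI-H747 cells, read out by a cell viability assay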
Description: SANGER: Inhibition of human NCI-H747 cell growth in a cell viability assay.

[30] = test system: ES8; format: functional, cell-based;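 note: growth inhibition of human ES8 cells, read out with a cell viability assay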
Description: SANGER: Inhibition of human ES8 cell growth in a cell viability assay.

[31] = test system: HCT-116; format: functional, cell-based
Description: SANGER: Inhibition of human HCT-116 cell growth in a cell viability assay.

[32] = test system: IST-SL1; format: functional, cell-based;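 note: growth inhibition of human IST-SL1 cells, read out with a cell viability assay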
Description: SANGER: Inhibition of human IST-SL1 cell growth in a cell viability assay.

[33] = test system: LS-123; format: functional, cell-based
Description: SANGER: Inhibition of human LS-123 cell growth in a cell viability assay.

[34] = test system: ESS-1; format: functional, cell-based;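 note: growth inhibition of human ESS-1 cells, read out by a cell viability assay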
Description: SANGER: Inhibition of human ESS-1 cell growth in a cell viability assay.

[35] = test system: NCI-H720; format: functional, cell-based;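 note: growth inhibition of human NCI-H720 cells determined by a cell viability assay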
Description: SANGER: Inhibition of human NCI-H720 cell growth in a cell viability assay.

[36] = test system: CHP-212; format: functional, cell-based
Description: SANGER: Inhibition of human CHP-212 cell growth in a cell viability assay.

[37] = test system: MPP-89; format: functional, cell-based;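 note: growth inhibition of human MPP-89 cells, read out with a cell viability assay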
Description: SANGER: Inhibition of human MPP-89 cell growth in a cell viability assay.

[38] = test system: NOS-1; format: functional, cell-based;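 note: growth inhibition of the human NOS-1 cell line, read out with a cell viability assay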
Description: SANGER: Inhibition of human NOS-1 cell growth in a cell viability assay.

[39] = test system: AM-38; format: functional, cell-based;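 note: growth inhibition of AM-38 cells of human origin, read out by a cell viability assay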
Description: SANGER: Inhibition of human AM-38 cell growth in a cell viability assay.

[40] = test system: DJM-1; format: functional, cell-based;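 note: growth inhibition of human DJM-1 cells, read out by a cell viability assay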
Description: SANGER: Inhibition of human DJM-1 cell growth in a cell viability assay.

[41] = test system: MDA-MB-175-VII; format: functional, cell-based
[42] = test system: SHP77; format: functional, cell-based, SHP-77;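 note: growth inhibition of human SHP-77 cells measured by a cell viability assay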
Description: SANGER: Inhibition of human SHP-77 cell growth in a cell viability assay.

[43] = test system: NB10; format: functional, cell-based;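 note: growth inhibition of NB10 cells, read out by a cell viability assay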
Description: SANGER: Inhibition of human NB10 cell growth in a cell viability assay.

[44] = test system: NCI-H526; format: functional, cell-based;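 note: growth inhibition of the human NCI-H526 cell line, measured by a cell viability assay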
Description: SANGER: Inhibition of human NCI-H526 cell growth in a cell viability assay.

[45] = test system: COLO-320-HSR; format: functional, cell-based;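 note: growth inhibition of COLO-320-HSR cells, determined with a cell viability assay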
Description: SANGER: Inhibition of human COLO-320-HSR cell growth in a cell viability assay.

[46] = test system: QIMR-WIL; format: functional, cell-based;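 note: growth inhibition of QIMR-WIL cells, read out with a cell viability assay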
Description: SANGER: Inhibition of human QIMR-WIL cell growth in a cell viability assay.

[47] = test system: CAS-1; format: functional, cell-based;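 note: growth inhibition of CAS-1 cells, measured with a cell viability assay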
Description: SANGER: Inhibition of human CAS-1 cell growth in a cell viability assay.

[48] = test system: OVCAR-4; format: functional, cell-based;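 note: growth inhibition of human OVCAR-4 cells, measured with a cell viability assay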
Description: SANGER: Inhibition of human OVCAR-4 cell growth in a cell viability assay.

[49] = test system: HH; format: functional, cell-based
Description: SANGER: Inhibition of human HH cell growth in a cell viability assay.

[50] = test system: K5; format: functional, cell-based
Description: SANGER: Inhibition of human K5 cell growth in a cell viability assay.

[51] = test system: OVCAR-5; format: functional, cell-based;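 note: growth inhibition of human OVCAR-5 cells, read out with a cell viability assay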
Description: SANGER: Inhibition of human OVCAR-5 cell growth in a cell viability assay.

[52] = test system: U2OS; format: functional, cell-based, U-2-OS;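 note: growth inhibition of human U-2-OS cells, determined with a cell viability assay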
Description: SANGER: Inhibition of human U-2-OS cell growth in a cell viability assay.

[53] = test system: COLO-829; format: functional, cell-based
Description: SANGER: Inhibition of human COLO-829 cell growth in a cell viability assay.

[54] = test system: EOL1; format: functional, cell-based;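 note: growth inhibition of EoL-1 cells, read out by a cell viability assay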
Description: SANGER: Inhibition of human EoL-1-cell cell growth in a cell viability assay.

[55] = test system: HCE-4; format: functional, cell-based;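 note: cell viability assay measuring inhibition of growth in the human HCE-4 cell line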
Description: SANGER: Inhibition of human HCE-4 cell growth in a cell viability assay.

[56] = test system: NCI-H69; format: functional, cell-based;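 note: growth inhibition of the cell line, read out with a cell viability assay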
Description: SANGER: Inhibition of human NCI-H69 cell growth in a cell viability assay.

[57] = test system: HCE-T; format: functional, cell-based;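 note: cell viability assay read-out, reporting inhibition of HCE-T cell growth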
Description: SANGER: Inhibition of human HCE-T cell growth in a cell viability assay.

[58] = test system: SJRH30; format: functional, cell-based;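 note: growth inhibition of human SJRH30 cells, read out with a cell viability assay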
Description: SANGER: Inhibition of human SJRH30 cell growth in a cell viability assay.

[59] = test system: EW-22; format: functional, cell-based;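 note: growth inhibition of the EW-22 cell line, measured with a cell viability readout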
Description: SANGER: Inhibition of human EW-22 cell growth in a cell viability assay.

[60] = test system: HAL-01; format: functional, cell-based;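 note: growth inhibition of human HAL-01 cells, read out with a cell viability assay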
Description: SANGER: Inhibition of human HAL-01 cell growth in a cell viability assay.

[61] = test system: HCC1187; format: functional, cell-based
Description: SANGER: Inhibition of human HCC1187 cell growth in a cell viability assay.

[62] = test system: EW-18; format: functional, cell-based
Description: SANGER: Inhibition of human EW-18 cell growth in a cell viability assay.

[63] = test system: JVM-2; format: functional, cell-based
Description: SANGER: Inhibition of human JVM-2 cell growth in a cell viability assay.

[64] = test system: DK-MG; format: functional, cell-based
Description: SANGER: Inhibition of human DK-MG cell growth in a cell viability assay.

[65] = test system: SBC-5; format: functional, cell-based
Description: SANGER: Inhibition of human SBC-5 cell growth in a cell viability assay.

[66] = test system: SNU-C2B; format: functional, cell-based
Description: SANGER: Inhibition of human SNU-C2B cell growth in a cell viability assay.

C[C@]12O[C@H](C[C@]1(O)CO)n1c3ccccc3c3c4c(c5c6ccccc6n2c5c31)CNC4=O [LESTAURTINIB]
IC50 [1]: 231 nM
IC50 [2]: 356 nM
IC50 [3]: 405 nM
IC50 [4]: 123 nM
IC50 [5]: 77.7 nM
IC50 [6]: 128 nM
IC50 [7]: 82.7 nM
IC50 [8]: 532 nM
IC50 [9]: > 2000 nM
IC50 [10]: > 2000 nM
IC50 [11]: > 2000 nM
IC50 [12]: > 2000 nM
IC50 [13]: 216 nM
IC50 [14]: 47.3 nM
IC50 [15]: 411 nM
IC50 [16]: 36.7 nM
IC50 [17]: 322 nM
IC50 [18]: 553 nM
IC50 [19]: 26.6 nM
IC50 [20]: > 2000 nM
IC50 [21]: > 2000 nM
IC50 [22]: 326 nM
IC50 [23]: > 2000 nM
IC50 [24]: > 2000 nM
IC50 [25]: 936 nM
IC50 [26]: 174 nM
IC50 [27]: 61.9 nM
IC50 [28]: 872 nM
IC50 [29]: 1050 nM
IC50 [30]: 132 nM
IC50 [31]: 137 nM
IC50 [32]: 112 nM
IC50 [33]: > 2000 nM
IC50 [34]: 682 nM
IC50 [35]: 48.5 nM
IC50 [36]: 82.2 nM
IC50 [37]: 1040 nM
IC50 [38]: 949 nM
IC50 [39]: > 2000 nM
IC50 [40]: 659 nM
IC50 [41]: 1140 nM
IC50 [42]: > 2000 nM
IC50 [43]: 338 nM
IC50 [44]: > 2000 nM
IC50 [45]: > 2000 nM
IC50 [46]: 94.1 nM
IC50 [47]: > 2000 nM
IC50 [48]: > 2000 nM
IC50 [49]: 506 nM
IC50 [50]: 145 nM
IC50 [51]: 504 nM
IC50 [52]: 82.9 nM
IC50 [53]: 1160 nM
IC50 [54]: 8.69 nM
IC50 [55]: > 2000 nM
IC50 [56]: > 2000 nM
IC50 [57]: 179 nM
IC50 [58]: 1890 nM
IC50 [59]: 862 nM
IC50 [60]: 306 nM
IC50 [61]: > 2000 nM
IC50 [62]: 635 nM
IC50 [63]: > 2000 nM
IC50 [64]: 1100 nM
IC50 [65]: 254 nM
IC50 [66]: 1120 nM

CCCS(=O)(=O)Nc1ccc(F)c(C(=O)c2c[nH]c3ncc(Cl)cc23)c1F [PLX-4720]
IC50 [1]: > 10000 nM
IC50 [2]: > 10000 nM
IC50 [3]: > 10000 nM
IC50 [4]: > 10000 nM
IC50 [5]: 385 nM
IC50 [6]: > 10000 nM
IC50 [7]: > 10000 nM
IC50 [8]: > 10000 nM
IC50 [9]: > 10000 nM
IC50 [10]: > 10000 nM
IC50 [11]: > 10000 nM
IC50 [12]: > 10000 nM
IC50 [13]: > 10000 nM
IC50 [14]: > 10000 nM
IC50 [15]: > 10000 nM
IC50 [16]: 1610 nM
IC50 [17]: > 10000 nM
IC50 [18]: > 10000 nM
IC50 [19]: > 10000 nM
IC50 [20]: > 10000 nM
IC50 [21]: > 10000 nM
IC50 [22]: > 10000 nM
IC50 [23]: > 10000 nM
IC50 [24]: > 10000 nM
IC50 [25]: > 10000 nM
IC50 [26]: > 10000 nM
IC50 [27]: 9600 nM
IC50 [28]: > 10000 nM
IC50 [29]: > 10000 nM
IC50 [30]: > 10000 nM
IC50 [31]: > 10000 nM
IC50 [32]: > 10000 nM
IC50 [33]: > 10000 nM
IC50 [34]: > 10000 nM
IC50 [35]: > 10000 nM
IC50 [36]: > 10000 nM
IC50 [37]: > 10000 nM
IC50 [38]: > 10000 nM
IC50 [39]: > 10000 nM
IC50 [40]: > 10000 nM
IC50 [41]: > 10000 nM
IC50 [42]: > 10000 nM
IC50 [43]: > 10000 nM
IC50 [44]: > 10000 nM
IC50 [45]: > 10000 nM
IC50 [46]: > 10000 nM
IC50 [47]: > 10000 nM
IC50 [48]: > 10000 nM
IC50 [49]: > 10000 nM
IC50 [50]: 761 nM
IC50 [51]: > 10000 nM
IC50 [52]: > 10000 nM
IC50 [53]: 390 nM
IC50 [54]: 142 nM
IC50 [55]: > 10000 nM
IC50 [56]: > 10000 nM
IC50 [57]: > 10000 nM
IC50 [58]: > 10000 nM
IC50 [59]: > 10000 nM
IC50 [60]: > 10000 nM
IC50 [61]: > 10000 nM
IC50 [62]: > 10000 nM
IC50 [63]: > 10000 nM
IC50 [64]: > 10000 nM
IC50 [65]: > 10000 nM
IC50 [66]: > 10000 nM
